Results from ChEMBL document CHEMBL1156829 (Proc Natl Acad Sci U S A, 2008).

Key:
Plasmodium falciparum [1] = assay: NOVARTIS: Inhibition of Plasmodium falciparum W2 (drug-resistant) proliferation in erythrocyte-based infection assay; type: functional, organism-based; conditions: Plasmodium falciparum, W2; read-out: EC50
Plasmodium falciparum [2] = assay: NOVARTIS: Inhibition of Plasmodium falciparum 3D7 (drug-susceptible) proliferation in erythrocyte-based infection assay; type: functional, organism-based; conditions: Plasmodium falciparum, 3D7
[3] = NOVARTIS: Cytotoxicity against human hepatocellular carcinoma cell line (Huh7); type: toxicity, cell-based, Huh-7; conditions: Huh7 cells (hepatocellular carcinoma cell line)

| SMILES | EC50 (Plasmodium falciparum [1]) | EC50 (Plasmodium falciparum [2]) | CC50 [3] |
| --- | --- | --- | --- |
| CC(C)(C)c1ccc(C(=O)Nc2ccc(NC(=O)c3ccc(-c4ccc([N+](=O)[O-])cc4)o3)cc2)cc1 | 3300 nM | 1210 nM | > 100000 nM |
| COc1cc(NC(C)CCCN(Cc2ccccc2OC)C(=O)Nc2cccc(F)c2)c2ncccc2c1 (stereo unspecified) | 840 nM | > 1660 nM | > 10000 nM |
| CCCCCCC(=O)Oc1ccccc1-c1nc2ccccn2c1NC(C)(C)CC(C)(C)C | 78.3 nM | 1060 nM | > 10000 nM |
| OC(CN1CCN(CC=Cc2ccccc2)CC1)Cn1c2ccc(Cl)cc2c2cc(Cl)ccc21 (stereo unspecified) | 75 nM | 181 nM | 17900 nM |
| CCOC(=O)C(=CNc1ccc(I)cn1)C(=O)OCC | < 12.6 nM | 190 nM | > 10000 nM |
| CCC(Nc1ccc(OC)cc1)=C1C(=O)CC(C)(C)CC1=O | 3950 nM | > 4140 nM | > 100000 nM |
| O=C(Nc1ccc(OC(F)(F)F)cc1)c1cnn2c1NC(c1cccs1)CC2C(F)(F)F (stereo unspecified) | 241 nM | 492 nM | > 50000 nM |
| COc1cc(Br)c(/C=C2\Sc3ccccc3C2=O)cc1OC | > 925 nM | > 1250 nM | > 10000 nM |
| CCc1ccc(Nc2cc(C)nc3nc(C)nn23)cc1 | 768 nM | 574 nM | > 100000 nM |
| COc1ccc(NC2=C(N3CCCCC3)C(=O)c3ccccc3C2=O)cc1 | 35 nM | 33.1 nM | 12600 nM |
| O=C(Nc1cccc(Cl)c1)c1cc2ccccc2cc1O | 229 nM | 545 nM | 7890 nM |
| C=CCSc1nnc2c(n1)[nH]c1ccc(OCC)cc12 | 549 nM | 5620 nM | > 100000 nM |
| COc1cc(Br)c(CCNC(=O)Cc2cc(OC)c(OC)cc2Br)cc1OC | > 8680 nM | > 8770 nM | > 100000 nM |
| CCCCCCN(C(=O)c1ccc(Cl)cc1)C(CC)c1nc2ccccc2c(=O)n1-c1ccccc1OC (stereo unspecified) | 607 nM | 952 nM | > 10000 nM |
| O=C(NN=Cc1c(O)ccc2ccccc12)c1cccnc1 | 373 nM | 875 nM | > 100000 nM |
| CC(C)(CCl)C(=O)NCCCCNc1ccnc2cc(Cl)ccc12 | 361 nM | 386 nM | > 11300 nM |
| CC1CN(C2CC(=O)N(c3ccccc3)C2=O)CC(C)O1 (stereo unspecified) | > 195 nM | 873 nM | > 10000 nM |
| CN1CCc2c(C#N)c(N3CCCC3)nc(N3CCCC3)c2C1 | 4820 nM | 2120 nM | > 100000 nM |
| Nc1ccc2nc(C=Cc3ccc(Cl)cc3)[nH]c2c1 | 122 nM | 580 nM | 6900 nM |
| O=C(Nc1ccc(C2=NCCN2)cc1)c1ccc(-c2ccc(C(=O)Nc3ccc(C4=NCCN4)cc3)cc2)cc1 | 364 nM | 1320 nM | > 11700 nM |
| O=C(O)C1Cc2c([nH]c3ccccc23)C(c2ccc(Cl)cc2Cl)N1 (stereo unspecified) | 688 nM | 1020 nM | > 100000 nM |
| Cc1ccc(-n2c(C(C)N(Cc3ccco3)C(=O)C3CCC3)nc3cc(Cl)ccc3c2=O)cc1 (stereo unspecified) | 208 nM | > 1680 nM | > 2760 nM |
| Cc1ccc2nc(C(C#N)=Cc3cn(Cc4ccc(Cl)cc4Cl)nc3-c3ccccc3)[nH]c2c1 | 1590 nM | 1820 nM | > 100000 nM |

| SMILES | EC50 (Plasmodium falciparum [1]) | EC50 (Plasmodium falciparum [2]) | CC50 [3] |
| --- | --- | --- | --- |
| Cc1ccccc1Nc1sc(C(=O)c2ccc([N+](=O)[O-])cc2)c(N)c1C(=O)Nc1ccccc1 | > 1540 nM | > 1200 nM | > 10000 nM |
| Cc1ccc(C#N)c(SCc2nnc(-c3ccc(Cl)cc3)o2)n1 | 108 nM | > 1250 nM | > 10000 nM |
| COc1ccc(Nc2nc(NCc3ccccc3)c3ccccc3n2)cc1 | 106 nM | 212 nM | 8670 nM |
| O=C1NC(=S)NC1=Cc1ccc(C(F)(F)F)cc1 | 1920 nM | > 12500 nM | > 100000 nM |
| CC(=O)Oc1ccc(C(=O)C(C(C)=O)c2ccccc2)c(OC(C)=O)c1 (stereo unspecified) | > 1020 nM | > 1390 nM | > 10000 nM |
| CC(=Cc1sc2ccc3occc3c2[n+]1CCO)C=C1Sc2ccc3ccoc3c2N1CCO.CCC(=Cc1sc2ccc3ccccc3c2[n+]1C)C=C1Sc2ccc3ccccc3c2N1C | 144 nM | > 373 nM | > 10000 nM |
| CCOc1cccc2c1N(C(=O)c1ccc(C)cc1)C(C)(C)C1=C2C2(SC(C(=O)OC)=C(C(=O)OC)S2)C(C(=O)OC)=C(C(=O)OC)S1 | 663 nM | 1080 nM | > 10000 nM |
| O=C1N(c2ccccc2)C[C@@H]2C[C@@H](c3ccc4nsnc4c3)N3CCC[C@@]123 | 641 nM | 888 nM | 9250 nM |
| O=[N+]([O-])c1cc(C(F)(F)F)c(Cl)c([N+](=O)[O-])c1Nc1cc(C(F)(F)F)ccc1Cl | 301 nM | 565 nM | 6130 nM |
| CCCCCCCC[n+]1c(C)n(C)c2cc(Cl)c(Cl)cc21 | 356 nM | 527 nM | 40500 nM |
| C[N+](C)(CC#Cc1ccccc1)CC#Cc1ccccc1 | 679 nM | 1930 nM | > 100000 nM |
| COc1cccc(CC2(CO)CCCN(Cc3sc(N4CCCC4)nc3Cl)C2)c1 (stereo unspecified) | > 6210 nM | > 12500 nM | > 100000 nM |
| CC1=C(CCN(CCCN(C)C)CCCN(C)C)C(C)(C)CCC1 | 498 nM | 193 nM | 7660 nM |
| Cc1ccn2c(NC(C)(C)CC(C)(C)C)c(-c3ccccc3OC(=O)N(C)C)nc2c1 | 28.5 nM | 576 nM | > 10000 nM |
| COc1ccc(C=NNc2nc(O)cc(-c3ccccc3)n2)cc1OC | > 1100 nM | 632 nM | > 10000 nM |
| Cc1ccc(CNC(=O)CSc2nc3ccsc3c(=O)n2CCCCCC(=O)NCCc2ccccc2)cc1 | 2720 nM | 4430 nM | > 100000 nM |
| C=C[C@H]1CN2CC[C@H]1C[C@@H]2[C@@H](OC(=O)c1cccs1)c1ccnc2ccccc12 | 294 nM | 1130 nM | > 10000 nM |
| CC1(C)CC(N=c2cc(-c3ccccc3)oc3ccc(Cl)cc23)CC(C)(C)N1 | 609 nM | 251 nM | 9600 nM |
| CC(=O)c1ccc(NC(=O)CN(C)S(=O)(=O)c2ccc3[nH]c4c(c3c2)CCCC4)cc1 | 3580 nM | > 12500 nM | 66900 nM |
| COc1ccc(CCN2C(=O)N(CCN(C)C)C(=O)C23CCN(Cc2ccc(O)cc2)CC3)cc1 | 828 nM | 221 nM | 78500 nM |
| COc1cc(OC)cc(C(=O)N2CCC(C(=O)Nc3cccc4ccccc34)CC2)c1 | 485 nM | > 481 nM | > 10000 nM |
| CN1CCN(c2nc(NN=Cc3cc(Br)c(O)cc3O)nc(Nc3ccc([N+](=O)[O-])cc3)n2)CC1 | 104 nM | 321 nM | > 10000 nM |
| CCOc1ccc(NC2=C(N3CCOCC3)C(=O)c3ccccc3C2=O)cc1 | 6570 nM | 3660 nM | > 100000 nM |

| SMILES | EC50 (Plasmodium falciparum [1]) | EC50 (Plasmodium falciparum [2]) | CC50 [3] |
| --- | --- | --- | --- |
| CCOC(=O)c1cc(-c2ccc(Cl)cc2Cl)[nH]c1N1CCN(c2ccc(OC)cc2)CC1 | > 1730 nM | 1370 nM | > 13400 nM |
| COc1cc(-c2nc(-c3ccc(C)c(C)c3)c(-c3ccc(C)c(C)c3)[nH]2)cc(OC)c1O | 132 nM | 93 nM | 61200 nM |
| CCOC(=O)c1c(NC(=O)c2ccc(S(=O)(=O)N(C)c3ccccc3)cc2)sc2c1CCN(C(=O)OCC)C2 | > 3290 nM | > 10600 nM | > 100000 nM |
| N=c1ccn(CC(=O)N2CCCc3ccccc32)c2ccccc12 | 453 nM | 1490 nM | > 100000 nM |
| COc1cc2nc(NC(=N)N)nc(C)c2cc1OC | 44.1 nM | 24.4 nM | > 10000 nM |
| COc1ccc(-n2nc(C(=O)NCC(=O)NCCCN3CC(C)CC(C)C3)c3ccccc3c2=O)cc1Cl (stereo unspecified) | 1870 nM | > 7360 nM | 76400 nM |
| Cn1cnc(S(=O)(=O)Nc2ccccc2C(=O)NCC2CC2)c1 | 82.1 nM | > 1470 nM | > 10000 nM |
| O=[N+]([O-])c1ccc(S(=O)(=O)N2CCN(C(=S)NCc3ccccc3)CC2)cc1 | 38 nM | 79.6 nM | > 100000 nM |
| O=C(c1ccccc1)N1CCc2nc(Cc3ccc(F)cc3Cl)sc2C1 | 2360 nM | 4400 nM | > 57400 nM |
| CC(=O)N(C1=C(N2CCN(C)CC2)C(=O)c2ccccc2C1=O)c1cc(C)cc(C)c1 | 61.2 nM | 67 nM | 12600 nM |
| COc1ccc(NC(=O)N2CCN(C(=O)c3nc(-c4ccccc4)nc(C)c3C(=O)OC(C)C)CC2C)cc1 (stereo unspecified) | 141 nM | 633 nM | > 10000 nM |
| CC1(C)N=C(N)N=C(N)N1c1ccc(Oc2ccc(Cl)cc2)c(Cl)c1 | 628 nM | 58 nM | 35100 nM |
| c1ccc(-c2c3c(cc4ccccc24)C[N+]2(CCCC2)C3)cc1 | 1730 nM | 1340 nM | > 100000 nM |
| CN1CCN=C1c1ccc(NC(=O)Nc2ccc(NC(=O)Nc3ccc(C4=NCCN4C)cc3)cc2)cc1 | 124 nM | 158 nM | > 10000 nM |
| CCNC(=S)NC1CC2CCCC(C1)N2CCc1ccccc1 (stereo unspecified) | 1390 nM | 1590 nM | > 100000 nM |
| CC(Nc1cc(C)ccn1)=C(C#N)C#N | 795 nM | 549 nM | > 100000 nM |
| OC(CN1CCN(C2c3ccccc3-c3ccccc32)CC1)Cn1c2ccc(Cl)cc2c2cc(Cl)ccc21 (stereo unspecified) | 278 nM | 1200 nM | > 10000 nM |
| COCCNC(=O)CN1C(=O)CC(C)(C)Sc2ccccc21 | > 19.8 nM | > 1250 nM | > 10000 nM |
| Fc1ccc2[nH]c3c(NCCN4CCCCC4)ncnc3c2c1 | 214 nM | 154 nM | 23700 nM |
| CC(C)(C)c1cc(Br)cc(C=NNc2ccc([N+](=O)[O-])cc2)c1O | 761 nM | > 1210 nM | > 10000 nM |
| CCc1nc2nc(C)cc(Nc3ccc4c(c3)OCCO4)n2n1 | 219 nM | 360 nM | > 100000 nM |
